Experimental data as given in paper PMC10508631, “Development of an antibody fused with an antimicrobial peptide targeting Pseudomonas aeruginosa: A new approach to prevent and treat bacterial infections” (PLOS Pathogens, 2023).
In brackets after ≈: the same amount, converted by molar mass. Where two headings read alike, the source gives them in different places. Where a SMILES comes first, the peptide text is derived from it.

Key:
[1] = test system: 293T human cell line; experiment: Mammalian cell cytotoxicity (CellTiter Glo); format: cell-based
Experimental: On day one, cells from an established 293T human cell line were seeded onto 96-well flat-bottom white plates (10,000 293T cells/well). On day two, dilution plates were prepared by diluting compound in cell growth medium to two times the final starting concentration and then carrying out serial two-fold dilutions across the plate. Medium from the cell growth assay plates was then aspirated, and 50 μl from the compound dilution plates were transferred to the assay plates. Fifty microliters of fresh media were then added to all the wells. The plates were incubated at 37°C, 5% CO2 for three days. […]. Media from the assay plates was aspirated, and 100 μl of CellTiter Glo/growth media mix was added to all wells. After five minutes, luminescence was read, and% inhibition vs. compound concentration was plotted.

[2] = test system: P. aeruginosa ATCC 27853; format: cell-based, Pseudomonas aeruginosa
Experimental: (§1) All plates were placed at 37°C overnight.

[3] = test system: P. aeruginosa ATCC 39324; format: cell-based, Pseudomonas aeruginosa
Experimental: as §1

[4] = test system: P. aeruginosa ATCC 27853; experiment: Synergy with antibiotics (MIC); format: cell-based, Pseudomonas aeruginosa; conditions: for MIC of the antibiotic alone: P. aeruginosa ATCC 27853; for MIC of the antibiotic in the presence of VSX-1: increasing amounts of VSX-1 (from 0.015 to 4 μg/mL), Fig 4 legend says P297
Experimental: as §1

[5] = test system: S. aureus 29213
Experimental: (§2) MICs and a killing assay were performed in this study. MICs were determined according to CLSI guidelines, using 2-fold serial compound dilutions in 96-well microtiter plates. Briefly, compounds were diluted in water across a mother plate and then 2 μl were stamped to assay plates—one plate for each strain to be tested. Bacterial strains were sub-cultured overnight on agar plates at 37°C. […] These concentrated cultures were diluted 1:200 in growth media to approximately 5 x 10^5 cells/ml. All assay plates received 100 μL diluted culture per well. All plates were placed at 37°C overnight. […] Wells at and above the MIC should appear devoid of growth when visualized.

[6] = test system: E. coli ATCC 25922; conditions: CLSI microdilution, 2-fold dilutions, ~5 x 10^5 cells/ml, 37°C, 18 hours; MIC = at least 80% growth inhibition
Experimental: as §2

[7] = 293T cells, 10,000 cells/well, three days, 37°C, CellTiter Glo luminescence
[8] = CLSI microdilution, 2-fold dilutions, ~5 x 10^5 cells/ml, 37°C, 18 hours, MIC = lowest concentration inhibiting growth by at least 80%
[9] = CLSI microdilution, 2-fold dilutions, ~5 x 10^5 cells/ml, 37°C, 18 hours, MIC = at least 80% growth inhibition

## CC[C@H](C)[C@H](NC(=O)[C@@H](NC(=O)[C@H](CCCNC(=N)N)NC(=O)[C@@H]1CCCN1C(=O)[C@H](CCCCN)NC(=O)[C@H](CCCCN)NC(=O)[C@H](Cc1ccccc1)NC(=O)[C@H](Cc1ccccc1)NC(=O)[C@H](CCCCN)NC(=O)[C@H](CCCCN)NC(=O)[C@H](C)NC(=O)[C@H](CCCNC(=N)N)NC(=O)[C@H](CCCCN)NC(=O)[C@H](CCCCN)NC(=O)[C@@H](NC(=O)[C@H](CO)NC(=O)[C@H](CC(N)=O)NC(=O)[C@H](CCCCN)NC(=O)[C@H](CC(C)C)NC(=O)[C@H](CCCCN)NC(=O)[C@H](CCCCN)NC(=O)[C@H](Cc1ccccc1)NC(=O)[C@H](Cc1ccccc1)NC(=O)[C@H](CCCCN)NC(=O)[C@H](CCCCN)NC(=O)[C@H](Cc1ccccc1)NC(=O)[C@H](CCCNC(=N)N)NC(=O)[C@H](CCCCN)NC(=O)CNC(=O)CNC(=O)CN)C(C)C)C(C)C)C(=O)NCC(=O)N[C@H](C(=O)N[C@@H](CO)C(=O)N[C@H](C(=O)N1CCC[C@H]1C(=O)N[C@@H](Cc1ccccc1)C(=O)O)[C@@H](C)CC)C(C)C [P296] (H-GGGKRFKKFFKKLKNSVKKRAKKFFKKPRVIGVSIPF-OH)
[1]; [7]
  Cytotox CC50: 400 µg/mL
[2]; [8]
  MIC P. aeruginosa ATCC 27853: 4 µg/mL (≈ 0.925 µM)
[3]; [9]
  MIC P. aeruginosa ATCC 39324: 2 µg/mL (≈ 0.462 µM)

## CC[C@H](C)[C@H](NC(=O)[C@H](CCCCN)NC(=O)[C@H](CCCNC(=N)N)NC(=O)CNC(=O)[C@H](CC(C)C)NC(=O)[C@H](CCCNC(=N)N)NC(=O)[C@H](CCCNC(=N)N)NC(=O)[C@H](CC(C)C)NC(=O)CNC(=O)[C@H](CCCNC(=N)N)NC(=O)CNC(=O)CNC(=O)CN)C(=O)N[C@@H](C)C(=O)N[C@@H](Cc1c[nH]cn1)C(=O)NCC(=O)N[C@H](C(=O)N[C@@H](CCCCN)C(=O)N[C@@H](CCCCN)C(=O)N[C@@H](Cc1ccc(O)cc1)C(=O)NCC(=O)N1CCC[C@H]1C(=O)N[C@H](C(=O)N[C@H](C(=O)N[C@@H](CC(C)C)C(=O)N[C@@H](CCCNC(=N)N)C(=O)N[C@H](C(=O)N[C@H](C(=O)N[C@@H](CCCCN)C(=O)N[C@@H](CCCCN)C(=O)N[C@@H](Cc1ccc(O)cc1)C(=O)NCC(=O)O)[C@@H](C)CC)[C@@H](C)CC)C(C)C)[C@@H](C)O)C(C)C [P294] (H-GGGRGLRRLGRKIAHGVKKYGPTVLRIIKKYG-OH)
[3]; ATCC 39324, 18 h
  MIC P. aeruginosa ATCC 39324: 2 µg/mL (≈ 0.57 µM)

## colistin
[4]
  MIC of the antibiotic alone: ~ 1 μg/ml
  MIC of the antibiotic in the presence of VSX-1: < 0.1 µg/mL

## CC[C@H](C)[C@H](NC(=O)CNC(=O)CNC(=O)CNC(=O)CN)C(=O)NCC(=O)N[C@@H](CCCCN)C(=O)N[C@@H](Cc1ccccc1)C(=O)N[C@@H](CC(C)C)C(=O)N[C@@H](CCCCN)C(=O)N[C@@H](CCCCN)C(=O)N[C@@H](C)C(=O)N[C@@H](CCCCN)C(=O)N[C@@H](CCCCN)C(=O)N[C@@H](Cc1ccccc1)C(=O)NCC(=O)N[C@@H](CCCCN)C(=O)N[C@@H](C)C(=O)N[C@@H](Cc1ccccc1)C(=O)N[C@H](C(=O)N[C@@H](CCCCN)C(=O)N[C@H](C(=O)N[C@@H](CC(C)C)C(=O)N[C@@H](CCCCN)C(=O)N[C@@H](CCCCN)C(=O)O)[C@@H](C)CC)C(C)C [P261] (H-GGGGIGKFLKKAKKFGKAFVKILKK-OH)
[1]; [7]
  Cytotox CC50: 250 µg/mL
[3]; [9]
  MIC P. aeruginosa ATCC 39324: 8 µg/mL (≈ 3.02 µM)

## C[C@@H](O)[C@H]1C(=O)N2C(C(=O)O)=C(S[C@@H]3CN[C@H](C(=O)N(C)C)C3)[C@H](C)[C@H]12 [meropenem]
[4]
  MIC of the antibiotic alone: 0.5 µg/mL
  MIC of the antibiotic in the presence of VSX-1: < 0.1 µg/mL

## CC[C@H](C)[C@H](NC(=O)[C@@H](NC(=O)[C@@H]1CCCN1C(=O)[C@H](CO)NC(=O)[C@H](CC(C)C)NC(=O)[C@H](CCCCN)NC(=O)[C@H](CCCCN)NC(=O)[C@H](Cc1ccccc1)NC(=O)[C@H](CC(C)C)NC(=O)[C@H](CCCCN)NC(=O)[C@H](CCCCN)NC(=O)[C@H](Cc1ccccc1)NC(=O)[C@H](CCCCN)NC(=O)[C@H](CCCCN)NC(=O)[C@H](CCCNC(=N)N)NC(=O)[C@H](Cc1ccccc1)NC(=O)[C@H](CCCNC(=N)N)NC(=O)[C@H](CCCCN)NC(=O)[C@H](Cc1ccccc1)NC(=O)[C@H](CCCNC(=N)N)NC(=O)CNC(=O)CNC(=O)CNC(=O)CN)C(C)C)C(=O)N1CCC[C@H]1C(=O)N[C@@H](CC(C)C)C(=O)N[C@@H](CC(C)C)C(=O)N[C@@H](Cc1c[nH]cn1)C(=O)N[C@@H](CC(C)C)C(=O)NCC(=O)O [P267] (H-GGGGRFKRFRKKFKKLFKKLSPVIPLLHLG-OH)
[5]; 29213, 18 h
  MIC S. aureus 29213: 16 µg/mL (≈ 4.63 µM)
[2]; ATCC 27853, 18 h
  MIC P. aeruginosa ATCC 27853: 4 µg/mL (≈ 1.16 µM)
[3]; ATCC 39324, 18 h
  MIC P. aeruginosa ATCC 39324: 4 µg/mL (≈ 1.16 µM)

## CC[C@H](C)[C@H](NC(=O)[C@H](CCCCN)NC(=O)[C@H](CCCCN)NC(=O)[C@H](CC(C)C)NC(=O)[C@H](CCCCN)NC(=O)[C@H](CCC(=O)O)NC(=O)[C@H](CCCCN)NC(=O)[C@@H](NC(=O)[C@H](CCCCN)NC(=O)[C@H](CC(N)=O)NC(=O)[C@H](CCCNC(=N)N)NC(=O)[C@H](Cc1ccccc1)NC(=O)[C@H](CCCCN)NC(=O)[C@H](CCCNC(=N)N)NC(=O)[C@H](CC(C)C)NC(=O)[C@H](CCCNC(=N)N)NC(=O)[C@H](CCCCN)NC(=O)[C@H](CCCNC(=N)N)NC(=O)[C@H](CC(C)C)NC(=O)CNC(=O)CNC(=O)CNC(=O)CN)[C@@H](C)CC)C(=O)NCC(=O)N[C@@H](CCC(N)=O)C(=O)N[C@@H](CCCCN)C(=O)N[C@H](C(=O)N[C@@H](CCC(N)=O)C(=O)NCC(=O)N[C@@H](CC(C)C)C(=O)N[C@@H](CC(C)C)C(=O)N1CCC[C@H]1C(=O)N[C@@H](CCCCN)C(=O)N[C@@H](CC(C)C)C(=O)N[C@@H](C)C(=O)O)[C@@H](C)CC [P271] (H-GGGGLRKRLRKFRNKIKEKLKKIGQKIQGLLPKLA-OH)
[1]; [7]
  Cytotox CC50: 250 µg/mL
[3]; [9]
  MIC P. aeruginosa ATCC 39324: 8 µg/mL (≈ 2.01 µM)

## NC[C@H]1O[C@H](O[C@H]2[C@H](O)[C@@H](O[C@H]3O[C@H](CO)[C@@H](O)[C@H](N)[C@H]3O)[C@H](N)C[C@@H]2N)[C@H](N)C[C@@H]1O [tobramycin]
[4]; Fig 4 legend
  synergy: MIC of the antibiotic in the presence of P297: did not exhibit an enhanced MIC

## CC[C@H](C)[C@H](NC(=O)[C@@H](NC(=O)[C@@H]1CCCN1C(=O)[C@H](CO)NC(=O)[C@H](CC(C)C)NC(=O)[C@H](CCCCN)NC(=O)[C@H](CCCCN)NC(=O)[C@H](Cc1ccccc1)NC(=O)[C@H](CC(C)C)NC(=O)[C@H](CCCCN)NC(=O)[C@H](CCCCN)NC(=O)[C@H](Cc1ccccc1)NC(=O)[C@H](CCCCN)NC(=O)[C@H](CCCCN)NC(=O)[C@H](CCCNC(=N)N)NC(=O)[C@H](Cc1ccccc1)NC(=O)[C@H](CCCNC(=N)N)NC(=O)[C@H](CCCCN)NC(=O)[C@H](Cc1ccccc1)NC(=O)[C@H](CCCNC(=N)N)NC(=O)CNC(=O)CNC(=O)CNC(=O)CN)C(C)C)C(=O)N1CCC[C@H]1C(=O)N[C@@H](CC(C)C)C(=O)N[C@@H](CC(C)C)C(=O)N[C@@H](Cc1c[nH]cn1)C(=O)N[C@@H](CC(C)C)C(=O)NCC(=O)O [P295] (H-GGGGRFKRFRKKFKKLFKKLSPVIPLLHLG-OH)
[1]
  Cytotox CC50: 95 µg/mL
[2]; ATCC 27853, 18 h
  MIC P. aeruginosa ATCC 27853: 4 µg/mL (≈ 1.16 µM)
[3]; ATCC 39324, 18 h
  MIC P. aeruginosa ATCC 39324: 4 µg/mL (≈ 1.16 µM)

## CSCC[C@H](NC(=O)[C@H](CO)NC(=O)[C@H](C)NC(=O)[C@H](C)NC(=O)[C@H](C)NC(=O)[C@H](C)NC(=O)[C@H](C)NC(=O)[C@H](C)NC(=O)[C@H](C)NC(=O)[C@H](CC(N)=O)NC(=O)[C@H](C)NC(=O)[C@H](C)NC(=O)[C@@H](NC(=O)[C@H](CC(C)C)NC(=O)[C@H](C)NC(=O)[C@H](C)NC(=O)[C@H](C)NC(=O)[C@H](C)NC(=O)[C@H](C)NC(=O)[C@H](C)NC(=O)[C@H](CC(=O)O)NC(=O)[C@H](CO)NC(=O)[C@H](C)NC(=O)[C@@H](NC(=O)[C@H](Cc1c[nH]cn1)NC(=O)CNC(=O)CNC(=O)CN)[C@@H](C)O)[C@@H](C)O)C(=O)N[C@@H](C)C(=O)O [P292] (H-GGGHTASDAAAAAALTAANAAAAAAASMA-OH)
[1]; [7]
  Cytotox CC50: 250 µg/mL
[6]
  MIC E. coli ATCC 25922: > 128 µg/mL
[5]; [9]
  MIC S. aureus 29213: > 128 µg/mL
[2]; [8]
  MIC P. aeruginosa ATCC 27853: > 128 µg/mL
[3]; [9]
  MIC P. aeruginosa ATCC 39324: > 128 µg/mL
